Tested on: STAT3
Experiment: STAT3 transcription inhibition test (reporter gene method)
Format: cell-based
Details: Homo sapiens; compound at 100 μM; STAT3 reporter HeLa stable cell line, oncostatin M 10 ng/mL, 4 hours; read-out: STAT3 transcription inhibitory activity (%)
Description: The inhibition of STAT3 transcription was evaluated by using STAT3 reporter HeLa stable cell line (Panomics Inc., catalog No. RC0003), a cell line for the reporter gene method, and performing the following method according to the appendix included therein.
STAT3, reporter HeLa stable cell line subcultured and maintained in a Dulbecco's modified Eagle's medium (DMEM) containing 10% fetal bovine serum, 100 units/mL penicillin, and 100 μg/mL streptomycin was inoculated at a concentration of 40000 cells/well to a 96-well plate (white) and attached to the plate by overnight incubation at 37° C. under 5% CO2. After addition of each evaluation compound adjusted to various concentrations (adjusted with a DMSO solution), the cells were precultured for 1 hour. Then, oncostatin M for activating STAT3 was added at a final concentration 10 ng/mL, and the cells were further cultured at 37° C. under 5% CO2 for 4 hours. Luciferase activity derived from the cells was determined using Steady-Glo Luciferase Assay System (Promega Corp.), and STAT3 transcriptional activity scores were calculated according to the following formula: STAT3 transcriptional activity score (%)=100×(Lchem−L0)/(LDMSO−L0) • L0: luminescence intensity obtained without stimulation with oncostatin M • Lchem: luminescence intensity obtained by the addition of a test sample • LDMSO: luminescence intensity obtained by the addition of only a solvent for dissolving a test sample
The test results were indicated in the rate of inhibition of STAT3 transcription by each compound at a concentration of 100 μM.

| SMILES | inhibition at 100 µM [%] |
| --- | --- |
| O=C(Nc1nnc(-c2ccco2)o1)c1ccc(-c2cc(Cl)cc(Cl)c2)o1 [Compound Ic-21, 5-(3,5-Dichlorophenyl)-N-[5-(2-furyl)-1,3,4-oxadiazol-2-yl]-2-furancarboxamide] | 64 |
| O=C(Nc1nnc(-c2ccco2)o1)c1cccc(-c2ccccc2)c1 [Compound Ia-1, N-[5-(2-Furyl)-1,3,4-oxadiazol-2-yl]-3-biphenylcarboxamide] | 60 |
| COc1ccc(-c2cccc(C(=O)Nc3nnc(-c4ccco4)o3)c2)cc1 [Compound Ia-16, N-[5-(2-Furyl)-1,3,4-oxadiazol-2-yl]-4′-methoxy-3-biphenylcarboxamide] | 57 |
| Cc1oc(-c2ccccc2)cc1C(=O)Nc1nnc(-c2ccco2)o1 [Compound Ic-22, N-[5-(2-Furyl)-1,3,4-oxadiazol-2-yl]-2-methyl-5-phenyl-3-furancarboxamide] | 65 |
| O=C(Nc1nnc(-c2ccco2)o1)c1cccc(-c2ccc3c(c2)OCO3)c1 [Compound Ia-42, N-[5-(2-Furyl)-1,3,4-oxadiazol-2-yl]-3-(3,4-methylenedioxyphenyl)benzenecarboxamide] | 88 |
| CCOC(=O)c1ccc(-c2ccc(C(=O)Nc3nnc(-c4ccco4)o3)o2)cc1 [Compound Ic-12, 5-(4-Ethoxycarbonylphenyl)-N-[5-(2-furyl)-1,3,4-oxadiazol-2-yl]-2-furancarboxamide] | 73 |
| O=C(Nc1nnc(-c2ccco2)o1)c1ccc(-c2cccc(Cl)c2)o1 [Compound Ic-4, 5-(3-Chlorophenyl)-N-[5-(2-furyl)-1,3,4-oxadiazol-2-yl]-2-furancarboxamide] | 81 |
| O=C(Nc1nnc(-c2ccco2)o1)c1ccc(-c2cc([N+](=O)[O-])ccc2Cl)o1 [Compound Ic-19, 5-(2-Chloro-5-nitrophenyl)-N-[5-(2-furyl)-1,3,4-oxadiazol-2-yl]-2-furancarboxamide] | 56 |
| O=C(Nc1nnc(-c2ccco2)o1)c1ccc(-c2ccc([N+](=O)[O-])cc2Cl)o1 [Compound Ic-14, 5-(2-Chloro-4-nitrophenyl)-N-[5-(2-furyl)-1,3,4-oxadiazol-2-yl]-2-furancarboxamide] | 51 |
| Cc1ccc(-c2cccc(C(=O)Nc3nnc(-c4ccco4)o3)c2)o1 [Compound Ia-34, N-[5-(2-Furyl)-1,3,4-oxadiazol-2-yl]-3-(5-methyl-2-furyl)benzenecarboxamide] | 78 |
| O=C(Nc1nnc(-c2ccco2)o1)c1cccc(-c2ccc(CCN3CCOCC3)cc2)c1 [Compound Ia-90, N-[5-(2-Furyl)-1,3,4-oxadiazol-2-yl]-4′-(2-morpholinoethyl)-3-biphenylcarboxamide] | 97 |
| O=C(Nc1nnc(-c2ccco2)o1)c1cccc(-c2ccc(F)cc2)c1 [Compound Ia-10, 4′-Fluoro-N-[5-(2-furyl)-1,3,4-oxadiazol-2-yl]-3-biphenylcarboxamide] | 97 |

Same assay, conditions: compound at 100 μM; STAT3 reporter HeLa stable cell line, oncostatin M 10 ng/mL, 4 hours

| SMILES | STAT3 transcription inhibitory activity (%) |
| --- | --- |
| O=C(Nc1nnc(-c2ccco2)o1)c1nc(-c2ccc(F)cc2)n2c1CCCCC2 [Compound Ic-26] | 58 |

— patent US8796320B2, “1,3,4-Oxadiazole-2-carboxamide compound” (General Incorporated Association Pharma Valley Project …, priority 2009, dated 2014)
